Read-outs that look alike come from different tables or passages of the source.
Key:
SCD1 = molecular target: T1, SCD1 (Homo sapiens, UniProt O00767); experiment: Growth inhibition of yeast (ole1Δ) expressing human SCD1 as the sole desaturase; type: cell-based; settings: read-out: SCD1 IC50
T1 construct: host or cells: Saccharomyces cerevisiae ole1Δ strain (W303 pdr1Δ pdr3Δ background), plasmid pRS316, TDH3 promoter
T1 sequence (O00767 1-359): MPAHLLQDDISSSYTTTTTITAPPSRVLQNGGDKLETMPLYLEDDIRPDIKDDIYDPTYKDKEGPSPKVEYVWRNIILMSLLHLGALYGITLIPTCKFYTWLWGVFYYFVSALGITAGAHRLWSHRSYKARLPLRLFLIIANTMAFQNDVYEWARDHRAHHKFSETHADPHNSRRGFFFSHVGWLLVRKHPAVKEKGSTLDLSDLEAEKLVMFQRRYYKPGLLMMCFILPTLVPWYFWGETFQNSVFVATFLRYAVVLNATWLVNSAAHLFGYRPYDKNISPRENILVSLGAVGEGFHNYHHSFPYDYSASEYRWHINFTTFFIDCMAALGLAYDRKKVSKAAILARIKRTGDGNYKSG

SCD5 = molecular target: T2, SCD5 (Homo sapiens, UniProt Q86SK9); experiment: Growth inhibition of yeast (ole1Δ) expressing human SCD5 as the sole desaturase; type: cell-based; settings: read-out: SCD5 IC50
T2 construct: host or cells: Saccharomyces cerevisiae ole1Δ strain (W303 pdr1Δ pdr3Δ background), plasmid pRS316, TDH3 promoter
T2 sequence (Q86SK9 1-330): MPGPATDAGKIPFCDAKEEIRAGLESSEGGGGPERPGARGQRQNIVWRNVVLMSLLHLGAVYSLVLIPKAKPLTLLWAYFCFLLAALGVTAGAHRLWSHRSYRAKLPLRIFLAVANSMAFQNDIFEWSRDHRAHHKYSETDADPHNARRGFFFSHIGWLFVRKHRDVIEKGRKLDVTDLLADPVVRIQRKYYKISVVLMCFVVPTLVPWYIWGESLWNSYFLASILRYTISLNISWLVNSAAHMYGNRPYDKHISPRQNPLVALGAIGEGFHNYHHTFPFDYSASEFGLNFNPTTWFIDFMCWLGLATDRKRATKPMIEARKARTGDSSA

[1] = yeast strain with SCD1 plasmid, OD600 growth read at 40 h
[2] = yeast strain with SCD5 plasmid, OD600 growth read at 40 h

| Compound | IC50 (SCD1) | IC50 (SCD5) | IC50 (SCD1; [1]) | IC50 (SCD5; [2]) |
| --- | --- | --- | --- | --- |
| Cn1nc(NC(=O)N2CCC(Cc3ccc(F)cc3)CC2)ccc1=O [Compound 44, 4-(4-fluorobenzyl)-N-(1-methyl-6-oxo-1,6-dihydropyridazin-3-yl)piperidine-1-carboxamide] | 2210 nM | 1170 nM |  |  |
| Cn1nc(NC(=O)N2CCC(F)(Cc3cccc(F)c3)CC2)ccc1=O [Compound 45, 4-fluoro-4-(3-fluorobenzyl)-N-(1-methyl-6-oxo-1,6-dihydropyridazin-3-yl)piperidine-1-carboxamide] |  |  | 1680 nM | 220 nM |
| Cn1nc(NC(=O)N2CCC(O)(Cc3cccc(F)c3)CC2)ccc1=O [Compound 47, 4-(3-fluorobenzyl)-4-hydroxy —N-(1-methyl-6-oxo-1,6-dihydropyridazin-3-yl)piperidine-1-carboxamide] |  |  | > 45000 nM | > 45000 nM |
| COC1(Cc2cccc(F)c2)CCN(C(=O)Nc2ccc(=O)n(C)n2)CC1 [Compound 48, 4-(3-fluorobenzyl)-4-methoxy —N-(1-methyl-6-oxo-1,6-dihydropyridazin-3-yl)piperidine-1-carboxamide] |  |  | > 45000 nM | > 45000 nM |
| Cn1nc(NC(=O)N2CCC(Cc3ccc(F)c(F)c3)CC2)ccc1=O [Compound 49, 4-(3,4-difluorobenzyl)-N-(1-methyl-6-oxo-1,6-dihydropyridazin-3-yl)piperidine-1-carboxamide] |  |  | 8100 nM | 430 nM |
| Cn1nc(NC(=O)N2CCC(Cc3cc(F)cc(C#N)c3)CC2)ccc1=O [Compound 50] |  |  | 17100 nM | 2460 nM |
| Cn1nc(NC(=O)N2CCC(Cc3cc(F)cc(Cl)c3)CC2)ccc1=O [Compound 55, 4-(3-chloro-5-fluorobenzyl)-N-(1-methyl-6-oxo-1,6-dihydropyridazin-3-yl)piperidine-1-carboxamide] |  |  | 160 nM | 20 nM |
| Cn1nc(NC(=O)N2CCC(Cc3cccc(C#N)c3Cl)CC2)ccc1=O [Compound 56, 4-(2-chloro-3-cyanobenzyl)-N-(1-methyl-6-oxo-1,6-dihydropyridazin-3-yl)piperidine-1-carboxamide] |  |  | > 45000 nM | > 45000 nM |
| Cn1nc(NC(=O)N2CCC(Cc3ccc(F)c(C#N)c3)CC2)ccc1=O [Compound 58, 4-(3-cyano-4-fluorobenzyl)-N-(1-methyl-6-oxo-1,6-dihydropyridazin-3-yl)piperidine-1-carboxamide] |  |  | > 45000 nM | 10400 nM |
| Cn1nc(NC(=O)N2CCC(F)(Cc3cc(F)cc(F)c3)CC2)ccc1=O [Compound 59, 4-(3,5-difluorobenzyl)-4-fluoro —N-(1-methyl-6-oxo-1,6-dihydropyridazin-3-yl)piperidine-1-carboxamide] |  |  | > 45000 nM | 11000 nM |
| Cn1nc(NC(=O)N2CCC(Oc3ccccc3)CC2)ccc1=O [Compound 67, N-(1-methyl-6-oxo-1,6-dihydropyridazin-3-yl)-4-phenoxypiperidine-1-carboxamide] |  |  | 3980 nM | 2100 nM |
| Cn1nc(NC(=O)N2CCC(Oc3ccc(Cl)cc3)CC2)ccc1=O [Compound 71] |  |  | 13300 nM | 4960 nM |
| Cc1ccccc1OC1CCN(C(=O)Nc2ccc(=O)n(C)n2)CC1 [Compound 72, N-(1-methyl-6-oxo-1,6-dihydropyridazin-3-yl)-4-(o-tolyloxy) piperidine-1-carboxamide] |  |  | 430 nM | 280 nM |
| COc1ccccc1OC1CCN(C(=O)Nc2ccc(=O)n(C)n2)CC1 [Compound 73, 4-(2-methoxyphenoxy)-N-(1-methyl-6-oxo-1,6-dihydropyridazin-3-yl)piperidine-1-carboxamide] |  |  | 31900 nM | 12500 nM |
| Cn1nc(NC(=O)N2CCC(Oc3cccc(C(F)(F)F)c3)CC2)ccc1=O [Compound 74, N-(1-methyl-6-oxo-1,6-dihydropyridazin-3-yl)-4-(3-(trifluoromethyl)phenoxy) piperidine-1-carboxamide] |  |  | 20 nM | 40 nM |
| Cn1nc(NC(=O)N2CCC(Oc3ccc(C(F)(F)F)cc3)CC2)ccc1=O [Compound 76, N-(1-methyl-6-oxo-1,6-dihydropyridazin-3-yl)-4-(4-(trifluoromethyl)phenoxy) piperidine-1-carboxamide] |  |  | 9770 nM | 4800 nM |
| Cn1nc(NC(=O)N2CCC(Oc3cccc(Cl)c3Cl)CC2)ccc1=O [Compound 81, 4-(2,3-dichlorophenoxy)-N-(1-methyl-6-oxo-1,6-dihydropyridazin-3-yl)piperidine-1-carboxamide] |  |  | 60 nM | 150 nM |

Further molecules by falling IC50 (SCD1; [1]), results first:

| IC50 (SCD1) | IC50 (SCD5) | IC50 (SCD1; [1]) | IC50 (SCD5; [2]) | Compound |
| --- | --- | --- | --- | --- |
|  |  | 9200 nM | 2600 nM | Cn1nc(NC(=O)N2CCC(Cc3cc(Cl)cc(C#N)c3)CC2)ccc1=O [Compound 57, 4-(3-chloro-5-cyanobenzyl)-N-(1-methyl-6-oxo-1,6-dihydropyridazin-3-yl)piperidine-1-carboxamide] |
|  |  | 8150 nM | 1490 nM | Cn1nc(NC(=O)N2CCC(Cc3cc(F)c(F)c(C#N)c3)CC2)ccc1=O [Compound 65, 4-(3-cyano-4,5-difluorobenzyl)-N-(1-methyl-6-oxo-1,6-dihydropyridazin-3-yl)piperidine-1-carboxamide] |
|  |  | 6500 nM | 920 nM | Cn1nc(NC(=O)N2CCC(F)(Cc3cc(F)c(F)c(Cl)c3)CC2)ccc1=O [Compound 66, 4-(3-chloro-4,5-difluorobenzyl)-4-fluoro —N-(1-methyl-6-oxo-1,6-dihydropyridazin-3-yl)piperidine-1-carboxamide] |
|  |  | 3900 nM | 1100 nM | Cn1nc(NC(=O)N2CCC(F)(Cc3ccc(F)c(F)c3)CC2)ccc1=O [Compound 60, 4-(3,4-difluorobenzyl)-4-fluoro —N-(1-methyl-6-oxo-1,6-dihydropyridazin-3-yl)piperidine-1-carboxamide] |
|  |  | 2400 nM | 330 nM | Cn1nc(NC(=O)N2CCC(Cc3ccc(Cl)c(F)c3)CC2)ccc1=O [Compound 52, 4-(4-chloro-3-fluorobenzyl)-N-(1-methyl-6-oxo-1,6-dihydropyridazin-3-yl)piperidine-1-carboxamide] |
|  |  | 1980 nM | 1190 nM | Cn1nc(NC(=O)N2CCC(Oc3ccc(F)c(F)c3)CC2)ccc1=O [Compound 80] |
|  |  | 1180 nM | 130 nM | Cn1nc(NC(=O)N2CCC(Cc3cc(F)ccc3F)CC2)ccc1=O [Compound 53] |
|  |  | 640 nM | 30 nM | Cn1nc(NC(=O)N2CCC(F)(Cc3cccc(Cl)c3)CC2)ccc1=O [Compound 46] |
|  |  | 480 nM | 200 nM | Cn1nc(NC(=O)N2CCC(Oc3cc(F)cc(F)c3)CC2)ccc1=O [Compound 79, 4-(3,5-difluorophenoxy)-N-(1-methyl-6-oxo-1,6-dihydropyridazin-3-yl)piperidine-1-carboxamide] |
|  |  | 440 nM | 40 nM | Cn1nc(NC(=O)N2CCC(Cc3ccc(F)c(Cl)c3)CC2)ccc1=O [Compound 54, 4-(3-chloro-4-fluorobenzyl)-N-(1-methyl-6-oxo-1,6-dihydropyridazin-3-yl)piperidine-1-carboxamide] |
|  |  | 420 nM | 150 nM | Cn1nc(NC(=O)N2CCC(Oc3ccccc3Cl)CC2)ccc1=O [Compound 69] |
|  |  | 390 nM | 20 nM | Cn1nc(NC(=O)N2CCC(Cc3cc(F)c(F)c(F)c3)CC2)ccc1=O [Compound 62, N-(1-methyl-6-oxo-1,6-dihydropyridazin-3-yl)-4-(3,4,5-trifluorobenzyl)piperidine-1-carboxamide] |
|  |  | 260 nM | 60 nM | Cn1nc(NC(=O)N2CCC(Oc3cccc(Cl)c3)CC2)ccc1=O [Compound 68, 4-(3-chlorophenoxy)-N-(1-methyl-6-oxo-1,6-dihydropyridazin-3-yl)piperidine-1-carboxamide] |
|  |  | 220 nM | 70 nM | Cn1nc(NC(=O)N2CCC(Oc3ccccc3C(F)(F)F)CC2)ccc1=O [Compound 75, N-(1-methyl-6-oxo-1,6-dihydropyridazin-3-yl)-4-(2-(trifluoromethyl)phenoxy) piperidine-1-carboxamide] |
|  |  | 130 nM | 10 nM | Cn1nc(NC(=O)N2CCC(Cc3cc(F)c(F)c(Cl)c3)CC2)ccc1=O [Compound 63, 4-(3-chloro-4,5-difluorobenzyl)-N-(1-methyl-6-oxo-1,6-dihydropyridazin-3-yl)piperidine-1-carboxamide] |
|  |  | 80 nM | 40 nM | Cn1nc(NC(=O)N2CCC(Cc3cc(F)c(F)cc3Cl)CC2)ccc1=O [Compound 61, 4-(2-chloro-4,5-difluorobenzyl)-N-(1-methyl-6-oxo-1,6-dihydropyridazin-3-yl)piperidine-1-carboxamide] |
|  |  | 50 nM | 10 nM | Cn1nc(NC(=O)N2CCC(Cc3cc(F)cc(F)c3Cl)CC2)ccc1=O [Compound 64, 4-(2-chloro-3,5-difluorobenzyl)-N-(1-methyl-6-oxo-1,6-dihydropyridazin-3-yl)piperidine-1-carboxamide] |

From US20250034125A1, “COMPOUNDS AND USES THEREOF” (JANSSEN PHARMACEUTICA NV, priority 2019, published 2025)
